Results published in US9783524B2, “Protein tyrosine kinase modulators and methods of use” (BETTA PHARMACEUTICALS CO., LTD., priority 2013, dated 2017).
Where two headings read alike, the source gives them in different places.

How the values were obtained:
Type in all cases: biochemical, human
EGFR (T790M, L858R) (h) = tested on: EGFR (T790M, L858R) (h)
Method: (§1) Assay conditions included 10 μM ATP and 100 nM test compounds.
(§2) All reactions are initiated by the addition of the MgATP mix. After incubation for 40 minutes at room temperature, the reaction is stopped by the addition of 3% phosphoric acid solution. 10 μL of the reaction is then spotted onto a P30 filtermat and washed three times for 5 minutes in 75 mM phosphoric acid and once in methanol prior to drying and scintillation counting. […] The experiment is carried out in duplicate. The value for the control sample (DMSO) was set to 100%, and the values for the compound-treated samples were expressed as activity relative to the control sample.
(§3) (specific activity approx. 500 cpm/pmol, concentration as required) and 0.1 μM test compound.

EGFR (T790M) (h) = tested on: EGFR (T790M) (h)
Method: as §1
(§4) All reactions are initiated by the addition of the MgATP mix. After incubation for 40 minutes at room temperature, the reaction is stopped by the addition of 3% phosphoric acid solution. 10 μL of the reaction is then spotted onto a P30 filtermat and washed three times for 5 minutes in 75 mM phosphoric acid and once in methanol prior to drying and scintillation counting. This assay is performed by Millipore. The experiment is carried out in duplicate. The value for the control sample (DMSO) was set to 100%, and the values for the compound-treated samples were expressed as activity relative to the control sample.

EGFR (h) = tested on: EGFR (h)
Method: as §1, §2, §3

ALK (h) = details: 0.1 μM test compound, 10 μM ATP; remaining activity relative to DMSO control = 100%
Method: as §1, §4

EGFR (L858R) (h) = tested on: EGFR (L858R) (h)
Method: as §1, §2, §3

[1] = 0.1 μM test compound, 10 μM ATP, remaining activity relative to DMSO control = 100%

SMILES	Activity (control) % EGFR (T790M, L858R) (h) (EGFR (T790M, L858R) (h); [1])	Activity (control) % EGFR (T790M) (h) (EGFR (T790M) (h); [1])	Activity (control) % EGFR (h) (EGFR (h); [1])	Activity (control) % ALK (h) (ALK (h))	Activity (control) % EGFR (L858R) (h) (EGFR (L858R) (h); [1])	Activity (control) % EGFR (T790M, L858R) (h) (EGFR (T790M, L858R) (h))	Activity (control) % EGFR (T790M) (h) (EGFR (T790M) (h))	Activity (control) % EGFR (h) (EGFR (h))	Activity (control) % EGFR (L858R) (h) (EGFR (L858R) (h))
C=CC(=O)Nc1cc(Nc2ncc(Cl)c(Nc3ccccc3C(=O)C(=O)N(C)CCN(C)C)n2)ccc1OC [Example 102, N-(5-(5-chloro-4-(2-(2-((2-(dimethylamino)ethyl)(methyl)amino)-2-oxoacetyl)phenylamino)pyrimidin-2-ylamino)-2-methoxyphenyl)acrylamide]	5%	40%	98%	5%	57%				
CCN(CC)C(=O)C(=O)c1ccccc1Nc1nc(Nc2ccc(N3CCN(C)CC3)c(OC)c2)ncc1Cl [Example 130, 2-(2-(5-chloro-2-(3-methoxy-4-(4-methylpiperazin-1-yl)phenylamino)pyrimidin-4-ylamino)phenyl)-N,N-diethyl-2-oxoacetamide]	22%	84%		13%	98%				
CN(C)C/C=C/C(=O)Nc1cccc(Nc2ncc(Cl)c(Nc3ccccc3C(=O)C(=O)N(C)C)n2)c1 [Example 114, (E)-N-(3-(5-chloro-4-(2-(2-(dimethylamino)-2-oxoacetyl)phenylamino)pyrimidin-2-ylamino)phenyl)-4-(dimethylamino)but-2-enamide]	8%	47%	91%	10%	52%				
C=C(CN1CCCC1)C(=O)Nc1ccc(OC)c(Nc2ncc(Cl)c(Nc3ccccc3C(=O)C(=O)N(C)C)n2)c1 [Example 97, N-(3-(5-chloro-4-(2-(2-(dimethylamino)-2-oxoacetyl)phenylamino)pyrimidin-2-ylamino)-4-methoxyphenyl)-2-(pyrrolidin-1-ylmethyl)acrylamide]	6%	2%	74%	23%	46%				
COc1ccc(NC(=O)/C=C/CN2CCCCC2)cc1Nc1ncc(Cl)c(Nc2ccccc2C(=O)C(=O)N(C)C)n1 [Example 72, (E)-N-(3-(5-chloro-4-(2-(2-(dimethylamino)-2-oxoacetyl)phenylamino)pyrimidin-2-ylamino)-4-methoxyphenyl)-4-(piperidin-1-yl)but-2-enamide]	9%	54%		14%	28%				
C=CC(=O)Nc1cc(Nc2ncc(C)c(Nc3ccccc3C(=O)C(=O)N(C)C)n2)ccc1OC [Example 101, N-(5-(4-(2-(2-(dimethylamino)-2-oxoacetyl)phenylamino)-5-methylpyrimidin-2-ylamino)-2-methoxyphenyl)acrylamide]	41%	83%	110%	35%	94%				
COc1ccc(NC(=O)/C=C/CN(C)C)cc1Nc1ncc(Cl)c(Nc2ccccc2C(=O)C(=O)N(C)C)n1 [Example 80, (E)-N-(3-(5-chloro-4-(2-(2-(dimethylamino)-2-oxoacetyl)phenylamino)pyrimidin-2-ylamino)-4-methoxyphenyl)-4-(dimethylamino)but-2-enamide]	7%	42%		10%	43%				
C=CC(=O)Nc1cc(Nc2ncc(Cl)c(Nc3ccccc3C(=O)C(=O)N(C)C)n2)ccc1OC1CCOC1 (stereo not shown) [Example 124, N-(5-(5-chloro-4-(2-(2-(dimethylamino)-2-oxoacetyl)phenylamino)pyrimidin-2-ylamino)-2-(tetrahydrofuran-3-yloxy)phenyl)acrylamide]	20%	78%	109%	16%	100%				
C=C(CN(C)CCN(C)C)C(=O)Nc1ccc(OC)c(Nc2ncc(Cl)c(Nc3ccccc3C(=O)C(=O)N(C)C)n2)c1 [Example 126, N-(3-(5-chloro-4-(2-(2-(dimethylamino)-2-oxoacetyl)phenylamino)pyrimidin-2-ylamino)-4-methoxyphenyl)-2-(((2-(dimethylamino)ethyl)(methyl)amino)methyl)acrylamide]	2%	5%	93%	19%	47%				
C=C(CN(C)CCN(C)C)C(=O)Nc1cccc(Nc2ncc(Cl)c(Nc3ccccc3C(=O)C(=O)N(C)C)n2)c1 [Example 125, N-(3-(5-chloro-4-(2-(2-(dimethylamino)-2-oxoacetyl)phenylamino)pyrimidin-2-ylamino)phenyl)-2-(((2-(dimethylamino)ethyl)(methyl)amino)methyl)acrylamide]	2%	18%		20%	54%				
CCC(=O)Nc1cc(Nc2ncc(Cl)c(Nc3ccccc3C(=O)C(=O)N(C)C)n2)ccc1OCCN(C)C [Example 120, N-(5-(5-chloro-4-(2-(2-(dimethylamino)-2-oxoacetyl)phenylamino)pyrimidin-2-ylamino)-2-(2-(dimethylamino)ethoxy)phenyl)propionamide]	14%	62%		8%	76%				
C=CC(=O)Nc1ccc(OC)c(Nc2ncc(Cl)c(Nc3ccccc3C(=O)C(=O)N3CCN(C)CC3)n2)c1 [Example 89, N-(3-(5-chloro-4-(2-(2-(4-methylpiperazin-1-yl)-2-oxoacetyl)phenylamino)pyrimidin-2-ylamino)-4-methoxyphenyl)acrylamide]	1%	5%	67%	8%	10%				
C=C(CN1CCCCC1)C(=O)Nc1cccc(Nc2ncc(Cl)c(Nc3ccccc3C(=O)C(=O)N(C)C)n2)c1 [Example 113, N-(3-(5-chloro-4-(2-(2-(dimethylamino)-2-oxoacetyl)phenylamino)pyrimidin-2-ylamino)phenyl)-2-(piperidin-1-ylmethyl)acrylamide]	3%	16%	88%	19%	78%				
C=CC(=O)Nc1cc(Nc2ncc(Cl)c(Nc3ccccc3C(=O)C(=O)N(C)C)n2)ccc1N1CCN(C)CC1 [Example 111, N-(5-(5-chloro-4-(2-(2-(dimethylamino)-2-oxoacetyl)phenylamino)pyrimidin-2-ylamino)-2-(4-methylpiperazin-1-yl)phenyl)acrylamide]	11%	59%		8%	76%				
C=C(CN(C)C)C(=O)Nc1ccc(OC)c(Nc2ncc(Cl)c(Nc3ccccc3C(=O)C(=O)N(C)C)n2)c1 [Example 78, N-(3-(5-chloro-4-(2-(2-(dimethylamino)-2-oxoacetyl)phenylamino)pyrimidin-2-ylamino)-4-methoxyphenyl)-2-((dimethylamino)methyl)acrylamide]	3%	2%	68%	36%	37%				
COc1cc(Nc2ncc(Cl)c(Nc3ccccc3C(=O)C(=O)N(C)C)n2)ccc1N1CCN(C(C)=O)CC1 [Example 94, 2-(2-(2-(4-(4-acetylpiperazin-1-yl)-3-methoxyphenylamino)-5-chloropyrimidin-4-ylamino)phenyl)-N,N-dimethyl-2-oxoacetamide]	9%	45%	100%	6%	84%				
C=C(CN1CCCCC1)C(=O)Nc1cc(Nc2ncc(Cl)c(Nc3ccccc3C(=O)C(=O)N(C)C)n2)ccc1N1CCOCC1 [Example 129, N-(5-(5-chloro-4-(2-(2-(dimethylamino)-2-oxoacetyl)phenylamino)pyrimidin-2-ylamino)-2-morpholinophenyl)-2-(piperidin-1-ylmethyl)acrylamide]	3%	24%		8%	75%				
CN(C)C(=O)C(=O)c1ccccc1Nc1nc(Nc2ccc(F)c(NC(=O)CCN3CCOCC3)c2)ncc1Cl [Example 123, N-(5-(5-chloro-4-(2-(2-(dimethylamino)-2-oxoacetyl)phenylamino)pyrimidin-2-ylamino)-2-fluorophenyl)-3-morpholinopropanamide]	31%	84%		17%	94%				
C=C(CN1CCCCC1)C(=O)Nc1ccc(OC)c(Nc2ncc(Cl)c(Nc3ccccc3C(=O)C(=O)N(C)C)n2)c1 [Example 73, N-(3-(5-chloro-4-(2-(2-(dimethylamino)-2-oxoacetyl)phenylamino)pyrimidin-2-ylamino)-4-methoxyphenyl)-2-(piperidin-1-ylmethyl)acrylamide]	3%	3%	67%	17%	37%				
C=CC(=O)Nc1cccc(Nc2nc(Nc3ccc(N4CCN(C(C)=O)CC4)cc3OC)ncc2C(F)(F)F)c1 [CO-1686, reference compound]						7%	21%	92%	97%
